# Laboratory results from PMC7400577 (Scientific Reports, 2020).
# Where two headings read alike, the source gives them in different places.
# Key:
# Type in all cases: cell-based
# [1] = target: T1, hBGT1 (Homo sapiens, UniProt P48065); conditions: for IC50: 30 nM [3H]GABA, 3 min, CHO Flp-In cells stably expressing hBGT1; for subtype-selectivity for hBGT1 over the other hGATs: estimated from [3H]GABA uptake IC50 values
# T1 construct: expressed in transfected cells
# T1 sequence (P48065 1-614): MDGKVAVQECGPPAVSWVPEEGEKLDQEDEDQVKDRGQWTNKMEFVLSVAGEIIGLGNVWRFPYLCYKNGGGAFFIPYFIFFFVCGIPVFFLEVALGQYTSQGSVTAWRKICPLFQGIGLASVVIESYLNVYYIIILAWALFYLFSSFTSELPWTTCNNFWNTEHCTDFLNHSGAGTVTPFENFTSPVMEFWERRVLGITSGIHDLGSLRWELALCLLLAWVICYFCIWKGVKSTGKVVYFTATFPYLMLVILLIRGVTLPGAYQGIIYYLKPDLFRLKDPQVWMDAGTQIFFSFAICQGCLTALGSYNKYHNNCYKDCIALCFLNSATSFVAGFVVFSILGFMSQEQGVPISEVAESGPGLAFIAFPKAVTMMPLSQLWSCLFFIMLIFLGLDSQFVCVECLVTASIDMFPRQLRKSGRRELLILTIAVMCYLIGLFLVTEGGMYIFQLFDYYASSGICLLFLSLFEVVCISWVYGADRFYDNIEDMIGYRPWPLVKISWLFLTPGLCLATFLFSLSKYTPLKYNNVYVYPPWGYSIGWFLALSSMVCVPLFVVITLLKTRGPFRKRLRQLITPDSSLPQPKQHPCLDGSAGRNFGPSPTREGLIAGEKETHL
# Procedure: (§1) CHO Flp-In and tsA201 cells were cultured at 37 °C in a humidified atmosphere of […] and 5% CO2. As previously described[38],[63], CHO Flp-In cells stably expressing the hGATs were cultured in Ham’s F12 Nutrient Mix supplemented with 10% FBS, 1% P/S and plasmocin (5 µg/mL) under the selection pressure of hygromycin B (200 µg/mL). DMEM with GlutaMAX-I supplemented with 10% FBS and 1% P/S was used as growth medium for the tsA201 cells, which were transfected with DNA constructs using PolyFect according to the manufacturer’s specifications (Qiagen, West Sussex, UK), but with half of the recommended reagent volumes.
# (§2) Uptake assays were performed in PDL-coated white 96-well polystyrene cell culture microplates (PerkinElmer, Boston, MA, USA) as previously described[38],[63]. […] Assay buffer was HBSS supplemented with 20 mM HEPES, 1 mM CaCl2 and 1 mM MgCl2, pH 7.4. […] After termination, scintillation liquid (MicroScint-20, PerkinElmer) was added and the radioactivity measured in a TopCount NXT Microplate Scintillation Counter (PerkinElmer).
# (§3) Data analysis and statistical evaluation were performed in GraphPad Prism 7.02 (GraphPad Software, San Diego, CA, USA). Concentration-uptake inhibition curves, generated from the radioligand-based uptake assays, were fitted by non-linear regression, using the equation for sigmoidal concentration–response with variable slope: Y = Bottom + (Top–Bottom)/(1 + 10^((logIC50 − X) × HillSlope)), where Y is the response, X is the logarithm of the concentration, Top and Bottom are the plateaus in same units as Y, logIC50 is the concentration giving a response halfway between Bottom and Top, and the HillSlope is the steepness of the curve. For the substrate concentration–response curves generated from the FMP assay, the same equation was used but with logEC50 instead for logIC50. Unless otherwise stated, data are presented as means ± S.E.M. of at least three independent pooled experiments performed in triplicates.
# [2] = target: T2, hGAT3 (Homo sapiens, UniProt P48066); assay: [3H]GABA uptake inhibition at hGAT3 stably expressed in CHO Flp-In cells; conditions: 30 nM [3H]GABA, 3 min, CHO Flp-In cells stably expressing hGAT3
# T2 construct: expressed in transfected cells
# T2 sequence (P48066 1-632): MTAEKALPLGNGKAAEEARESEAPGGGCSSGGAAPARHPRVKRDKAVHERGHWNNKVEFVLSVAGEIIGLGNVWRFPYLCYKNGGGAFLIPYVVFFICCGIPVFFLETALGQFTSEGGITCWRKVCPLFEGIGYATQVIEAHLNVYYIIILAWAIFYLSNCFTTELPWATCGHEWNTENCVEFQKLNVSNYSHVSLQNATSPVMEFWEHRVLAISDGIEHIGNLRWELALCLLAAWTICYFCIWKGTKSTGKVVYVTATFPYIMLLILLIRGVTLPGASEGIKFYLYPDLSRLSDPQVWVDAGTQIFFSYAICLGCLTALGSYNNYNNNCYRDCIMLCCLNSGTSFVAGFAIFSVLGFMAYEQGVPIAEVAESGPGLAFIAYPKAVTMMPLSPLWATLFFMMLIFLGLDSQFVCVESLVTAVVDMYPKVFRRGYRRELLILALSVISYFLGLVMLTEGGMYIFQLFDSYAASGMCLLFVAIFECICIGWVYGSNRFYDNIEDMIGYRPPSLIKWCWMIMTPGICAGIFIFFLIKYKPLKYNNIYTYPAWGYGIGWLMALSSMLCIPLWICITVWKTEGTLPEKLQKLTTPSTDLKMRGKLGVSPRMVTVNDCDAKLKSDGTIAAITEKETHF
# Procedure: as §1, §2, §3
# [3] = target: T3, hGAT2 (Homo sapiens, UniProt Q9NSD5); assay: [3H]GABA uptake inhibition at hGAT2 stably expressed in CHO Flp-In cells; conditions: 30 nM [3H]GABA, 3 min, CHO Flp-In cells stably expressing hGAT2
# T3 construct: expressed in transfected cells
# T3 sequence (Q9NSD5 1-602): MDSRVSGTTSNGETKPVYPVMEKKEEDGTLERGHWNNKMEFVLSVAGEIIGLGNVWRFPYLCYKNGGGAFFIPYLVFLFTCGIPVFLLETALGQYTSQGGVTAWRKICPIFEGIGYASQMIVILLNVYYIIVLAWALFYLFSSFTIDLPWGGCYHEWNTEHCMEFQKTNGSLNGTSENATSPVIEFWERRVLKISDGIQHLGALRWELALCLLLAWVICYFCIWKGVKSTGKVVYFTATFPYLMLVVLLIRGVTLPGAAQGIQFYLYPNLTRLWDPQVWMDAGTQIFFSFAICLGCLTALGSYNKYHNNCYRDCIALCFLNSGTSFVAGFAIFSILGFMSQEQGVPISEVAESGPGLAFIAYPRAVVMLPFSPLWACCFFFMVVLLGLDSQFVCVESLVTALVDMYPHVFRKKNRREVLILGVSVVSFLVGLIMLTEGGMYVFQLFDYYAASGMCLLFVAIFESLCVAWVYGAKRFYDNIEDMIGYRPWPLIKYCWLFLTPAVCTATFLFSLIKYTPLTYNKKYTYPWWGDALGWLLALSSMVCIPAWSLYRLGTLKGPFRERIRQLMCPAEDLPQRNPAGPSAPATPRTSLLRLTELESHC
# Procedure: as §1, §2, §3
# [4] = target: T4, hGAT1 (Homo sapiens, UniProt P30531); assay: [3H]GABA uptake inhibition at hGAT1 stably expressed in CHO Flp-In cells; conditions: 30 nM [3H]GABA, 3 min, CHO Flp-In cells stably expressing hGAT1
# T4 construct: expressed in transfected cells
# Procedure: as §1, §2, §3
# [5] = target: T1, hBGT1; assay: FLIPR Membrane Potential (FMP) assay at hBGT1 stably expressed in CHO Flp-In cells
# Procedure: The fluorescence-based FMP assay was performed as previously described, for the functional characterization of the electrogenic transport of substrates via hBGT1. Briefly, CHO Flp-In cells stably expressing hBGT1 or hGAT1 were plated (~ 50,000 cells/well) into black PDL-coated 96-well plates with clear bottom (VWR, Radnor, PA, USA). The next day, the growth medium was removed, and cells were washed once with HBSS assay buffer and FMP Blue Dye (Molecular Devices, Crawley, UK), added, and incubated. Ligands were added via the NOVOStar plate reader (BMG Labtech GmbH, Offenburg, Germany), preheated to 37 °C, approximately 10 min before reading of the cell plate. The fluorescence signals were measured for 33.8 s upon ligand addition using an emission and excitation wavelength of […], respectively. Electrogenic transport of substrates via hBGT1 will lead to an influx of the negatively charged FMP Blue dye that will bind to intracellular proteins and lipids resulting in an increase in the fluorescence signal.
# as §3
# [6] = target: T5, hBGT1 wt (Homo sapiens, UniProt P48065); assay: [3H]GABA uptake inhibition at wt hBGT1 transiently expressed in tsA201 cells; conditions: 30 nM [3H]GABA, tsA201 cells transiently expressing wt hBGT1
# T5 construct: expressed in transfected cells; host or cells: tsA201 cells, transient (PolyFect), pcDNA5/FRT vector
# T5 sequence (P48065 1-614): T1 sequence (P48065 1-614)
# [7] = read-out: pIC50 ± S.E.M. hBGT1 (converted)
# [8] = read-out: pIC50 ± S.E.M. hGAT2 (converted)
# T4 sequence (P30531 whole entry): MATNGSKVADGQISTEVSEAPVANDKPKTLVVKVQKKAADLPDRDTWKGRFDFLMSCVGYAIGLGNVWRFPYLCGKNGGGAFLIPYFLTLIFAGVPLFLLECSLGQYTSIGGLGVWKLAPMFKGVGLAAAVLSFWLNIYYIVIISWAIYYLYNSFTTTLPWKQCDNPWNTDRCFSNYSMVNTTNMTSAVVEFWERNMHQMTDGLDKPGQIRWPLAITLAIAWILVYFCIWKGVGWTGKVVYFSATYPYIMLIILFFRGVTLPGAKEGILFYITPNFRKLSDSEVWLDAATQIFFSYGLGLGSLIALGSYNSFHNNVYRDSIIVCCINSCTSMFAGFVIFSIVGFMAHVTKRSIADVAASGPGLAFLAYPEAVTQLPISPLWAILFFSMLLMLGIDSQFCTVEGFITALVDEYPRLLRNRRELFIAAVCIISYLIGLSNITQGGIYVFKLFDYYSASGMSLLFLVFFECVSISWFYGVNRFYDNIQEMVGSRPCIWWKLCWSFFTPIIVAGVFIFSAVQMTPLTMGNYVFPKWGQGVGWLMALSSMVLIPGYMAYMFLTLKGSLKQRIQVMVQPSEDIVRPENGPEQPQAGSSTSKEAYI
Structure (SMILES),IC50 ([1]; read-out: IC50 hBGT1) [µM],IC50 ([2]; read-out: IC50 hGAT3) [µM],IC50 ([3]; read-out: IC50 hGAT2) [µM],IC50 ([4]; read-out: IC50 hGAT1) [µM],also measured
C[C@@H]1N=C(N)NC[C@@H]1C(=O)O (relative stereo) [l-15],–,–,–,–,"IC50 [1, 7]: 41.7 µM"
NC1=N[C@@H](CCc2ccc(-c3ccccc3)cc2)[C@@H](C(=O)O)CN1 (relative stereo) [l-19],> 1000,> 1000,> 1000,> 1000,–
"C[C@@H]1N=C(N)NC[C@@H]1C(=O)O (single isomer, unassigned) [l-15b]",442,> 1000,> 1000,> 1000,"IC50 [1, 7]: 417 µM; subtype-selectivity for hBGT1 over the other hGATs ([1]; CHO Flp-In cells): 2–3 times"
"C[C@H]1N=C(N)NC[C@@H]1C(=O)O (single isomer, unassigned) [u-15a]",292,> 1000,> 1000,> 1000,"IC50 [1, 7]: 269 µM; subtype-selectivity for hBGT1 over the other hGATs ([1]; CHO Flp-In cells): 2–3 times"
"C[C@H]1N=C(N)NC[C@@H]1C(=O)O (single isomer, unassigned) [u-15b]",85,> 1000,> 1000,> 1000,"IC50 [1, 7]: 77.6 µM; subtype-selectivity for hBGT1 over the other hGATs ([1]; CHO Flp-In cells): at least 12 times"
NC1=NCC(C(=O)O)CN1Cc1ccc(-c2ccccc2)cc1 (stereo not shown) [compound 5],50,396,382,1040,"decrease of hBGT1 inhibitory potency compared to ATPCA ([1]; [3H]GABA uptake, CHO Flp-In cells): 20–65 fold; subtype-selectivity for hBGT1 over the other hGATs ([1]; CHO Flp-In cells): at least 7 times; IC50 ([2]; read-out: pIC50 ± S.E.M. hGAT3 (converted)): 380 µM; substrate character at hBGT1 in FMP assay ([5]; concentration-dependent increase in fluorescence signal): substrates for hBGT1; Mean Rmax as % of GABA Rmax ± S.E.M. ([5]; hBGT1 stably expressed in CHO Flp-In cells, FMP assay): 73 ± 2.8 % of GABA Rmax; EC50 ([5]; hBGT1 stably expressed in CHO Flp-In cells, three independent experiments): 194 µM"
NC1=NCC(C(=O)O)CN1CCC(c1ccccc1)c1ccccc1 (stereo not shown) [compound 6],> 1000,> 1000,> 1000,> 1000,–
NC1=NCC(C(=O)O)CN1CCCC(c1ccccc1)c1ccccc1 (stereo not shown) [compound 7],> 1000,> 1000,> 1000,> 1000,–
Cc1ccsc1C(=CCCN1CC(C(=O)O)CN=C1N)c1sccc1C (stereo not shown) [compound 8],–,–,–,–,IC50 ([6]; read-out: IC50 BGT1 wt): 621 µM; IC50 ([6]; read-out: pIC50 ± S.E.M. BGT1 wt (converted)): 631 µM
NC1=NCC(C(=O)O)=CN1Cc1ccccc1 [compound 9],–,–,–,–,IC50 ([6]; read-out: IC50 BGT1 wt): > 1000 µM
O=C(O)C1CN=C(NCCc2ccccc2)NC1 (stereo not shown) [compound 10],> 1000,> 1000,> 1000,439,IC50 ([4]; read-out: pIC50 ± S.E.M. hGAT1 (converted)): 427 µM
CC1=C(C(=O)O)CNC(N)=N1 [compound 12],> 1000,> 1000,> 1000,> 1000,–
CCCC1=C(C(=O)O)CNC(N)=N1 [compound 13],> 1000,> 1000,530,> 1000,"IC50 [3, 8]: 501 µM"
CC(C)C1=C(C(=O)O)CNC(N)=N1 [compound 14],> 1000,> 1000,1010,> 1000,"IC50 [3, 8]: 955 µM"
CCCC1N=C(N)NCC1C(=O)O (stereo not shown) [compound 16],> 1000,> 1000,601,> 1000,"IC50 [3, 8]: 589 µM"
CC(C)C1N=C(N)NCC1C(=O)O (stereo not shown) [compound 17],> 1000,> 1000,> 1000,> 1000,–
NC1=NC(CCc2ccccc2)C(C(=O)O)CN1 (stereo not drawn) [l-18],> 1000,> 1000,> 1000,> 1000,–
